Measured values as given in paper PMC9604400, “Synthesis, Anticancer and Antitubercular Properties of New Chalcones and Their Nitrogen-Containing Five-Membered Heterocyclic Hybrids Bearing Sulfonamide Moiety” (International Journal of Molecular Sciences, 2022).
Converted amounts (≈) assume the structure as drawn.

How the values were obtained:
renal cancer cell lines = experiment: NCI-60 screen (SRB), renal cancer panel; assay type: cell-based; details: Homo sapiens, single dose 10 μM, read-out: GI (growth inhibition), range over panel
[1] = test system: Mycobacterium bovis BCG (ATCC 35734); experiment: microbe, parasite or virus in culture; assay type: cell-based; details: Mycobacterium tuberculosis variant bovis BCG, read-out: MIC Against M. bovis BCG
[2] = test system: Mycobacterium tuberculosis H37Rv (ATCC 27294); experiment: microbe, parasite or virus in culture; assay type: cell-based; details: Mycobacterium tuberculosis; agar dilution SPOTi; read-out: MIC Against M. tuberculosis H37Rv
[3] = Cytotoxicity on Vero cell line (MTT); assay type: cell-based, African green monkey; details: African green monkey, Vero cells (African green monkey kidney, ATCC CCL-81); MTT, 24 h
Vero cell line = experiment: Cytotoxicity on Vero cell line (MTT); assay type: cell-based, African green monkey; details: Vero IC50 / MIC M. tuberculosis H37Rv
M14 = experiment: NCI-60 screen (SRB), melanoma; details: Homo sapiens; for IC50: M14; for CC50: M14, read-out: LC50
SK-MEL-28 = experiment: NCI-60 screen (SRB), melanoma; details: Homo sapiens; for IC50: SK-MEL-28; for CC50: SK-MEL-28, read-out: LC50
UACC-257 = experiment: NCI-60 screen (SRB), melanoma; details: Homo sapiens; for IC50: UACC-257; for CC50: UACC-257, read-out: LC50
SF-268 = experiment: NCI-60 screen (SRB), CNS cancer; details: Homo sapiens; for IC50: SF-268; for CC50: SF-268, read-out: LC50
U251 = experiment: NCI-60 screen (SRB), CNS cancer; details: Homo sapiens; for IC50: U-251; for CC50: U-251, read-out: LC50
HCT-116 = experiment: NCI-60 screen (SRB), colon cancer; details: for IC50 / CC50: Homo sapiens; for IC50: HCT-116; for CC50: HCT-116, read-out: LC50
ACHN = experiment: NCI-60 screen (SRB), renal cancer; details: Homo sapiens; for CC50: read-out: LC50
SN12C = experiment: NCI-60 screen (SRB), renal cancer; details: Homo sapiens; for CC50: read-out: LC50
OVCAR-5 = experiment: NCI-60 screen (SRB), ovarian cancer; details: Homo sapiens; for IC50: OVCAR-5; for CC50: OVCAR-5, read-out: LC50
NCI/ADR-RES = experiment: NCI-60 screen (SRB), ovarian cancer; details: Homo sapiens; for CC50: read-out: LC50
SK-OV-3 = experiment: NCI-60 screen (SRB), ovarian cancer; details: Homo sapiens; for IC50: SK-OV-3; for CC50: SK-OV-3, read-out: LC50
NCI-H522 = experiment: NCI-60 screen (SRB), non-small cell lung cancer; details: Homo sapiens; for IC50: NCI-H522; for CC50: NCI-H522, read-out: LC50

SMILES	IC50 (M14) [µM]	CC50 (M14) [µM]	IC50 (SK-MEL-28) [µM]	CC50 (SK-MEL-28) [µM]	IC50 (UACC-257) [µM]	CC50 (UACC-257) [µM]	IC50 (SF-268) [µM]	CC50 (SF-268) [µM]	IC50 (U251) [µM]	CC50 (U251) [µM]	IC50 (HCT-116) [µM]	CC50 (HCT-116) [µM]	IC50 (ACHN) [µM]	CC50 (ACHN) [µM]	IC50 (SN12C) [µM]	CC50 (SN12C) [µM]	IC50 (OVCAR-5) [µM]	CC50 (OVCAR-5) [µM]	IC50 (NCI/ADR-RES) [µM]	CC50 (NCI/ADR-RES) [µM]	other results
COc1cc(OC)c(S(N)(=O)=O)cc1C(=O)C=Cc1ccccc1 [Compound 17a, 5-Cinnamoyl-2,4-dimethoxybenzenesulfonamide]	7.51	60.5	12.5	51	9.96	47.8	5.88	62.7	2.92	39.2	1.49	67.2	6.99	44.8	3.49	43.8	13.2	53.7	15.5	> 100	inhibition at 10 µM (renal cancer cell lines): 66.2 to 100%; MIC [1]: > 29 µM; MIC [2]: 29 µM (≈ 10.1 µg/mL); IC50 at 24 h [3]: 1.06 ± 1.21 µM; Selectivity Index (SI) (SI = IC50/MIC) (Vero cell line): 0.04; IC50 (SK-OV-3): 14.4 µM; CC50 (SK-OV-3): 52.9 µM; IC50 (NCI-H522): 6.56 µM; CC50 (NCI-H522): 49.7 µM
COc1cc(OC)c(S(N)(=O)=O)cc1C(=O)/C=C/c1ccc(Cl)cc1 [Compound 17b, (E)-5-(3-(4-Chlorophenyl)acryloyl)-2,4-dimethoxybenzenesulfonamide]	1.47	6.7	3.03	33.4	5.46	71.6	3.75	> 100	2.18	> 100	0.75	5.13	3.16	33.4	2.48	60.2	3.18	39	3.97	> 100	inhibition at 10 µM (renal cancer cell lines): 78.5 to 100%; IC50 (SK-OV-3): 2.8 µM; CC50 (SK-OV-3): 35.4 µM; IC50 (NCI-H522): 1.63 µM; CC50 (NCI-H522): 7.14 µM
COc1cc(OC)c(S(N)(=O)=O)cc1C(=O)/C=C/c1ccc(C)cc1 [Compound 17c, (E)-2,4-Dimethoxy-5-(3-(p-tolyl)acryloyl)benzenesulfonamide]	3.25	56	4.09	40.8	3.86	41.9	3.2	> 100	2.66	32.7	30.6	58	3.86	37.3	2.95	38.8	2.57	27.2	5.25	> 100	IC50 (SK-OV-3): 3.18 µM; CC50 (SK-OV-3): 32.5 µM; IC50 (NCI-H522): 2.48 µM; CC50 (NCI-H522): 32.5 µM
COc1cc(OC)c(S(=O)(=O)N(CCCl)CCCl)cc1C(=O)/C=C/c1cc(OC)c(OC)c(OC)c1 [Compound 18e, (E)-N,N-bis(2-Chloroethyl)-2,4-dimethoxy-5-(3-(3,4,5-trimethoxyphenyl)acryloyl)benzenesulfonamide]	5.45	> 100	3.54	6.88	3.89	9.14	7.7	> 100	3.68	7.61	2.82	6.47	6.16	> 100	13	> 100	6.8	> 100	> 100	> 100	lethality (HCT-116; HCT-116, single dose 10 μM): 87.74%; IC50 (SK-OV-3): 13 µM; CC50 (SK-OV-3): > 100 µM; IC50 (NCI-H522): 1.66 µM; CC50 (NCI-H522): 8.59 µM
